{"source": "paper PMC13108699", "about": "“Mass balance and metabolite profiling of ^14C-Zalunfiban in humans following single-dose subcutaneous administration” (Xenobiotica; the fate of foreign compounds in biological …, 2025)", "key": {"[1]": {"assay": "Cumulative excretion of ^14C in urine and faeces (mass balance)", "assay_type": "in vivo, human", "from_the_text": "This was a Phase 1, single-centre, open-label, non-controlled, mass balance and metabolite profiling study of ^14C-radiolabeled zalunfiban in health male volunteers (NCT04284995). The planned participant enrolment size was 8, with 2 additional alternate participants available on the morning of dosing. Following a 28-day screening period, all eligible participants were admitted to the research unit the evening before dosing. After fasting overnight, participants completed a standard breakfast prior to dosing on study day 1. After dosing, subjects fasted for 4 h. Fluids were permitted ad libitum starting 1-hour after dosing. […]\nWhole blood samples were analysed using accelerator mass spectrometry (AMS). […] Each sample was counted for at least 10 min or until the 2%2σ terminator was reached. […] The CO2 produced was trapped in a Carbosorb/Permafluor 2:1 v/v (Perkin Elmer, Waltham MA) to determine total carbon content and the ^14C:^12C ratio and then analysed by AMS.\nA carbon content correction based upon pre-dose whole blood samples and urine samples was applied to all post dose samples. As the carbon content of homogenised faeces can be variable, all homogenised faeces samples were analysed by C,H,N using a Thermo Scientific FlashSmart elemental analyser (Waltham, MA). Urea standards were used to calibrate and normalise the C,H,N, and the carbon content of each sample was determined. […]"}, "[2]": {"assay": "Whole blood total radioactivity (AMS) PK after SC ^14C-zalunfiban", "assay_type": "in vivo, human", "method": "The planned participant enrolment size was 8, with 2 additional alternate participants available on the morning of dosing. Following a 28-day screening period, all eligible participants were admitted to the research unit the evening before dosing. After fasting overnight, participants completed a standard breakfast prior to dosing on study day 1. After dosing, subjects fasted for 4 h. Fluids were permitted ad libitum starting 1-hour after dosing. […] The clinical study was conducted at the Pharmaron Clinical Pharmacology Centre (Baltimore, MD) and the study protocol, consent forms and regulatory documents were reviewed and approved by the […] Institutional Review Board (Columbia, MD). All participants received the same fixed mass dose of SC 9.5 mg ^14C-zalunfiban (5 μCi), in 0.5 mL of formulation solution. This zalunfiban dose was chosen to both ensure participant safety and to make certain the study results were clinically relevant. For the latter, by strict inclusion of participants with a body weight within the range of 73-99 kg, the zalunfiban doses were no higher than the highest administered in the currently ongoing Phase 3 study, which includes three groups of 0.110 mg/kg zalunfiban, 0.130 mg/kg zalunfiban, and placebo ([NIH 2025]). The ^14C radiolabel dose of 5 μCi presented minimal radiation risk to healthy subjects while providing a high likelihood of meeting the study objectives. […] At the laboratory, extraction of ^14C-zalunfiban from whole blood was achieved by repeated microcentrifugation, vortex mixing, and harvesting to collect analytes (see Metabolite profiling and excretion for more details). […] Whole blood samples were analysed using accelerator mass spectrometry (AMS). Urine sample analysis was performed using liquid scintillation counting analysis. Each sample was counted for at least 10 min or until the 2%2σ terminator was reached. Homogenised faeces samples were combusted in a Perkin Elmer, Model 307 sample oxidiser (Perkin Elmer, Waltham MA). […] For urine and faeces samples, total radioactivity analysis was initially performed using two liquid scintillation counters (LSC), a TriCarb 3180 TR/SL and a TriCarb 5110 TR (Perkin Elmer, Waltham MA). When the measured total radioactivity concentration was above the LLOQ, LSC data were reported. For LSC, the LLOQ was defined as twice the background count rate. If the radioactivity concentration was below the limit of quantification (BLOQ), samples were analysed by Accelerator Mass Spectrometry (AMS). For AMS analysis, the LLOQ for total radioactivity depends on multiple factors, including the carbon content of the sample, and it is provided as the mean of all participant values. The mean (SD) total radioactivity LLOQ for zalunfiban in whole blood was 0.2421 (0.0571) ngEq/mL, for faeces 0.0663 (0.0135) ngEq/gm, and urine 0.0088 (0.0029) ngEq/g. Zalunfiban and whole blood radioactivity concentrations were used to calculate PK parameters using standard non-compartmental analysis (NCA) methods using Phoenix WinNonlin software (Phoenix, Princeton, NJ). All statistical programming and tables, figures and listings were carried out using SAS 9.4 (SAS Institute, Inc., Cary, NC)."}}, "note": "Values joined by “and” are separate entries in the source; they are usually repeats but may differ in a detail not shown here. Identical values can stand only once."}
{"smiles": "NCC(=O)Nc1cncc(-c2nn3c(=O)cc(N4CCNCC4)nc3s2)c1", "note": "[Zalunfiban, 2-amino-N-{5-[5-oxo-7-(piperazin-1-yl)-5H-[1,3,4]thia-diazolo[3,2-a]pyrimidin-2-yl]pyridin-3-yl}acetamide]", "values": [{"measurement": "Radioactivity recovered in urine and faeces", "setting": "[1]; by 48 h, on average", "result": "more than 80%"}, {"measurement": "Cumulative percentage of recovered ^14C (urine plus faeces)", "setting": "[1]; by 240 h post-dose, range over participants, listed as 14C-zalunfiban", "result": "> 90", "unit": "%"}, {"measurement": "Time of first detection of whole blood radioactivity", "setting": "[2]; all participants", "result": 5, "unit": "min"}, {"measurement": "Time to which whole blood total radioactivity remained quantifiable", "setting": "[2]; all subjects except one (216 h)", "result": "up to 240 h"}, {"measurement": "Mean whole blood zalunfiban/total radioactivity expressed as a percentage, AUC0–4", "setting": "[2]; first 4 h after dose", "result": "35.6% and 35%"}, {"measurement": "t1/2, whole blood total radioactivity", "setting": "[2]; mean, overall (0.5 h to 240 h), n=8", "result": 98.3, "unit": "h"}, {"measurement": "Mean whole blood zalunfiban/total radioactivity expressed as a percentage, AUC0-inf", "setting": "[2]; to be interpreted with caution (different assay sensitivity)", "result": 15.1, "unit": "%"}]}
